Results as given in the supplement of paper PMC13380429.

Legend:
[1] = tested on: A549-ACE2; assay: phospholipidosis EC50; higher = less potent phospholipidosis inducer
[2] = tested on: Calu-3; assay: drug sensitivity score (DSS) for viability; higher = more toxic; extreme values may be limits of the assay; conditions: 72 h
[3] = tested on: U2OS; assay: as above; conditions: 72 h
[4] = tested on: Caco-2; assay: as above; conditions: 72 h
[5] = tested on: HepG2; assay: as above; conditions: 72 h
[6] = tested on: Vero E6; assay: as above; conditions: 72 h
[7] = tested on: Calu-3; assay: relative viability EC50 (midpoint between 100% and the lowest measured viability); higher = less toxic; conditions: 72 h
[8] = tested on: U2OS; assay: as above; conditions: 72 h
[9] = tested on: Caco-2; assay: as above; conditions: 72 h
[10] = tested on: HepG2; assay: as above; conditions: 72 h
[11] = tested on: Calu-3; assay: cell viability relative to DMSO; higher = less toxic; conditions: 72 h
[12] = tested on: U2OS; assay: as above; conditions: 72 h
[13] = tested on: Caco-2; assay: as above; conditions: 72 h
[14] = tested on: HepG2; assay: as above; conditions: 72 h
[15] = tested on: Vero E6; assay: as above; conditions: 72 h
[16] = tested on: A549-ACE2 infected with SARS-CoV-2; assay: SARS-CoV-2 infection rate relative to DMSO; higher = more infection; conditions: 24 h
[17] = tested on: A549-ACE2; assay: drug-induced phospholipidosis relative to tamoxifen; higher = more phospholipidosis
[18] = tested on: A549-ACE2 infected with SARS-CoV-2; assay: cell count relative to DMSO; higher = less toxic; conditions: 24 h
[19] = tested on: A549-ACE2 infected with SARS-CoV-2; assay: morphology score (similarity to uninfected cells); higher = more like uninfected cells; conditions: 24 h
[20] = tested on: Vero E6; assay: relative viability EC50 (midpoint between 100% and the lowest measured viability); higher = less toxic; conditions: 72 h

Cc1cc(Nc2ccc(NC(=O)c3ccc(Nc4ccnc5ccccc45)cc3)cc2)nc(N)n1 [SGI-1027]
Conditions | SARS-CoV-2 infection rate [%] | cell count [%] | cell viability [%] | morphology score | phospholipidosis EC50 [nM]
[1], 24 h | – | – | – | – | 2950
[1], 48 h | – | – | – | – | 3260
[1], 72 h | – | – | – | – | 3610
[11], 1 nM | – | – | 106 | – | –
[11], 10 nM | – | – | 109 | – | –
[11], 100 nM | – | – | 112 | – | –
[11], 1000 nM | – | – | 106 | – | –
[11], 10000 nM | – | – | 2.8 | – | –
[12], 1 nM | – | – | 98.1 | – | –
[12], 10 nM | – | – | 104 | – | –
[12], 100 nM | – | – | 103 | – | –
[12], 1000 nM | – | – | 104 | – | –
[12], 10000 nM | – | – | 1 | – | –
[13], 1 nM | – | – | 103 | – | –
[13], 10 nM | – | – | 114 | – | –
[13], 100 nM | – | – | 103 | – | –
[13], 1000 nM | – | – | 99.4 | – | –
[13], 10000 nM | – | – | 13.1 | – | –
[14], 1 nM | – | – | 110 | – | –
[14], 10 nM | – | – | 108 | – | –
[14], 100 nM | – | – | 104 | – | –
[14], 1000 nM | – | – | 39.5 | – | –
[14], 10000 nM | – | – | -0.3 | – | –
[15], 1 nM | – | – | 96.9 | – | –
[15], 10 nM | – | – | 99 | – | –
[15], 100 nM | – | – | 94.7 | – | –
[15], 1000 nM | – | – | 96.6 | – | –
[15], 10000 nM | – | – | 63.9 | – | –
[16], 0.1 µM | 91 | – | – | – | –
[16], 0.3 µM | 101 | – | – | – | –
[16], 1 µM | 59 | – | – | – | –
[16], 3 µM | 24 | – | – | – | –
[18], 0.1 µM | – | 106 | – | – | –
[18], 0.3 µM | – | 95 | – | – | –
[18], 1 µM | – | 106 | – | – | –
[18], 3 µM | – | 34 | – | – | –
[19], 0.1 µM | – | – | – | 0.25 | –
[19], 0.3 µM | – | – | – | -0.15 | –
[19], 1 µM | – | – | – | 0.65 | –
[19], 3 µM | – | – | – | 0.16 | –

Conditions | drug sensitivity score | relative viability EC50
[2] | 5 | –
[3] | 5.2 | –
[4] | 4.9 | –
[5] | 12.6 | –
[6] | 2.3 | –
[7] | – | 3.48 µM
[8] | – | 3.39 µM
[9] | – | 3.12 µM
[10] | – | 844 nM

drug-induced phospholipidosis [%], [17]
Conditions | 0.3 µM | 0.833333 µM | 3.33333 µM | 6.66667 µM
24 h | 6.15 | 4.67 | 40.2 | 55.8
48 h | 5.31 | 4.66 | 44.4 | 77.3
72 h | 4.09 | 2.03 | 32.5 | 76.8

O=C(OCC(O)CO)c1ccccc1Nc1ccnc2cc(Cl)ccc12 (stereo not drawn) [glafenine]
Conditions | drug sensitivity score | relative viability EC50
[2] | 0 | –
[3] | 0 | –
[4] | 0 | –
[5] | 0 | –
[6] | 0 | –
[7] | – | > 10 µM
[8] | – | > 10 µM
[9] | – | > 10 µM
[10] | – | > 10000 nM
[20] | – | > 10 µM

Conditions | SARS-CoV-2 infection rate, [16] [%] | cell count, [18] [%] | cell viability, [11] [%] | cell viability, [12] [%] | cell viability, [13] [%] | cell viability, [14] [%] | cell viability, [15] [%] | morphology score, [19]
1 nM | – | – | 89.4 | 97.2 | 84.7 | 99.8 | 101 | –
10 nM | – | – | 100 | 102 | 95.9 | 81.1 | 90.5 | –
100 nM | – | – | 87.7 | 94.8 | 66.6 | 97.4 | 102 | –
0.3 µM | 94 | 103 | – | – | – | – | – | 0.2
1000 nM | – | – | 106 | 98.2 | 89.5 | 91 | 86.9 | –
3 µM | 88 | 85 | – | – | – | – | – | 0.28
10000 nM | – | – | 94 | 89 | 95.7 | 94.3 | 107 | –
10 µM | 97 | 115 | – | – | – | – | – | 0.42
30 µM | 53 | 104 | – | – | – | – | – | 0.74

drug-induced phospholipidosis [%], [17]
Conditions | 0.3 µM | 0.833333 µM | 3.33333 µM | 6.66667 µM | 10 µM | 30 µM
24 h | 0.74 | 1.36 | 2 | 1.93 | 2.17 | 23.8
48 h | 0.09 | -3.04 | 0.5 | 3.25 | 3.8 | 23.1
72 h | -1.15 | -3.87 | -2.67 | 0.336 | 3.93 | 30.1

Cc1cccc(/C=N/Nc2cc(N3CCOCC3)nc(OCCc3ccccn3)n2)c1 [STA-5326]
Conditions | SARS-CoV-2 infection rate [%] | cell count [%] | cell viability [%] | morphology score | phospholipidosis EC50 [nM]
[1], 24 h | – | – | – | – | 300
[1], 48 h | – | – | – | – | 809
[1], 72 h | – | – | – | – | 687
[11], 1 nM | – | – | 104 | – | –
[11], 10 nM | – | – | 104 | – | –
[11], 100 nM | – | – | 97.9 | – | –
[11], 1000 nM | – | – | 93.6 | – | –
[11], 10000 nM | – | – | 90.1 | – | –
[12], 1 nM | – | – | 97.6 | – | –
[12], 10 nM | – | – | 100 | – | –
[12], 100 nM | – | – | 95 | – | –
[12], 1000 nM | – | – | 91.3 | – | –
[12], 10000 nM | – | – | 75.1 | – | –
[13], 1 nM | – | – | 91.2 | – | –
[13], 10 nM | – | – | 96.4 | – | –
[13], 100 nM | – | – | 94.7 | – | –
[13], 1000 nM | – | – | 78.9 | – | –
[13], 10000 nM | – | – | 60.8 | – | –
[14], 1 nM | – | – | 99.3 | – | –
[14], 10 nM | – | – | 88.2 | – | –
[14], 100 nM | – | – | 93 | – | –
[14], 1000 nM | – | – | 26.2 | – | –
[14], 10000 nM | – | – | 19.7 | – | –
[15], 1 nM | – | – | 97.2 | – | –
[15], 10 nM | – | – | 104 | – | –
[15], 100 nM | – | – | 93.8 | – | –
[15], 1000 nM | – | – | 42.4 | – | –
[15], 10000 nM | – | – | 43.2 | – | –
[16], 0.3 µM | 51 | – | – | – | –
[16], 3 µM | 77 | – | – | – | –
[16], 10 µM | 91 | – | – | – | –
[16], 30 µM | 35 | – | – | – | –
[18], 0.3 µM | – | 104 | – | – | –
[18], 3 µM | – | 95 | – | – | –
[18], 10 µM | – | 106 | – | – | –
[18], 30 µM | – | 108 | – | – | –
[19], 0.3 µM | – | – | – | -0.01 | –
[19], 3 µM | – | – | – | -0.14 | –
[19], 10 µM | – | – | – | 0 | –
[19], 30 µM | – | – | – | 0.18 | –

Conditions | drug sensitivity score | relative viability EC50
[2] | 0 | –
[3] | 1.5 | –
[4] | 4.2 | –
[5] | 14.6 | –
[6] | 11.6 | –
[7] | – | > 10 µM
[8] | – | > 10 µM
[10] | – | 308 nM
[20] | – | 0.228 µM

drug-induced phospholipidosis [%], [17]
Conditions | 0.3 µM | 0.833333 µM | 3.33333 µM | 6.66667 µM | 10 µM | 30 µM
24 h | 103 | 105 | 105 | 124 | 111 | 85.7
48 h | 104 | 80.8 | 58.2 | 63.7 | 66 | –
72 h | 113 | 59.5 | 34.8 | 46.3 | 59.3 | –

CC1(C)CC[C@]2(C(=O)O)CC[C@]3(C)[C@H](C(=O)C=C4[C@@]5(C)C=C(C#N)C(=O)C(C)(C)[C@@H]5CC[C@]43C)[C@@H]2C1 [bardoxolone]
Conditions | drug sensitivity score | relative viability EC50
[2] | 5.9 | –
[3] | 8.9 | –
[4] | 5.3 | –
[5] | 9.5 | –
[6] | 4.2 | –
[7] | – | 2.44 µM
[8] | – | 1.37 µM
[9] | – | > 10 µM
[10] | – | 1280 nM
[20] | – | 3.43 µM

Conditions | SARS-CoV-2 infection rate, [16] [%] | cell count, [18] [%] | cell viability, [11] [%] | cell viability, [12] [%] | cell viability, [13] [%] | cell viability, [14] [%] | cell viability, [15] [%] | morphology score, [19]
1 nM | – | – | 102 | 101 | 91.3 | 98.2 | 101 | –
10 nM | – | – | 104 | 104 | 107 | 92.1 | 102 | –
100 nM | – | – | 102 | 102 | 78.1 | 89.7 | 111 | –
0.1 µM | 97 | 101 | – | – | – | – | – | 0.07
0.3 µM | 99 | 91 | – | – | – | – | – | -0.05
1000 nM | – | – | 92.5 | 72.3 | 83.8 | 62.8 | 104 | –
1 µM | 99 | 89 | – | – | – | – | – | -0.09
3 µM | 115 | 94 | – | – | – | – | – | -0.26
10000 nM | – | – | 15.5 | 12 | 82.9 | 5.4 | 18.3 | –

drug-induced phospholipidosis [%], [17]
Conditions | 0.3 µM | 0.833333 µM | 3.33333 µM | 6.66667 µM | 10 µM
24 h | -1.07 | -5.8 | 7.86 | 18.2 | -6.56
48 h | -3.77 | -7.72 | 1.1 | – | –
72 h | -2.71 | -7.17 | – | – | –
